Experiments:
[1] = tested on: ICAM-1 on RPMI-8226 tumor cells; experiment: ICAM-1 expression on MM cells isolated from treated mice (flow cytometry); type: in vivo, SCID mice; details: disseminated RPMI-8226 model, cells collected at termination
Description: Organs for FACS analysis were collected at scarification of mice, and cells from tissues were prepared by mechanistic dissociation and dispase/collagenase enzymatic digestion (Gibco, France). Cells were stained with anti-human CD38 antibody (PerCP-Cy5, Becton Dickinson), an anti-mouse CD45 (PE, Becton Dickinson) and human ICAM-1 (BI-505 IgG1 AF647, BioInvent) and incubated in the dark for 15 min at room temperature. After the incubation, cells were washed twice and the surface fluorescence of cells was analyzed with a flow cytometer apparatus (LSRII) at the Flow Cytometry Facility of the University of Burgundy.
The health status and behavior of mice was recorded every day and body weight of mice was recorded twice a week. […] Upon termination, bone marrow, spinal cord, adrenal glands and kidneys were collected and examined for ICAM-1 expression on tumor cells. To distinguish cells of human versus murine origin, an anti-mouse CD45 mAb was used CD45. […] In addition, cells were stained with AF647 conjugated anti ICAM-1 mAb and thereafter analyzed in a FACS LSRII. Bone marrow was mechanically dissociated to a single cell suspension whereas adrenal glands, kidneys and spinal cord cells were prepared using a combination of mechanistic dissociation and dispase/collagenase digestion (Gibco, France). Prior to the experiment, dispase and collagenase treatments were shown not to effect ICAM-1 levels on MM cell lines.

ARH-77 cells [2] = experiment: Disseminated scid/ARH-77 model of multiple myeloma; type: in vivo, scid mice; details: i.v. on Days 7, 10, 13, 16; antibody 2 mg/kg, bortezomib 0.5 mg/kg; vs control
Description: ARH-77 cells or RPMI-8226 were injected intraveniously into the SCID mice. (FIG. 6A) ARH-77 model. Animals received intravenous injections with antibody at 2 mg/kg or bortezomib (Velcade) at 0.5 mg/kg on Days 7, 10, 13, and 16 (as indicated by arrows in the graph). (FIG. 6B) RPMI-8226-model. BI-505 or control mAb was administered i.v at 2 mg/kg, twice weekly for 8 weeks, bortezomid, at 1 mg/kg, once weekly for 8 weeks, lenalidomide p.o with 2 mg/kg for 2 cycles consisting of 5 days of treatment and 2 days of wash out, melphalan i.v at 3 mg/kg, once weekly for 8 weeks, and dexamethasone (DXH) at 6 mg/kg/inj 3 times/week for 2 consecutive weeks. There were 6-10 mice per treatment group. Statistical significance was calculated using Log-rank Graphpad Prism software and determined at ***p<0.001. (FIG. 6C) To study the ICAM-1 level on human cells, the cells from different organs were stained and gated for CD38+/mCD45−/BI-505+. Left panel indicates the percentage of BI-505 positive cells in CD38+/mCD45 population and right panel the mean fluorescent intensity of the positive cells.
The anti-myeloma effect of BI-505 was examined in a disseminated model of multiple myeloma. The early and advanced disseminated model of multiple myeloma was performed at Oncodesign, Dijon, France. Briefly: 1×10^6 (early) or 5×10^6 (advanced) ARH-77 tumor cells in 200 μL of RPMI 1640 were injected intravenously (i.v) into the caudal vein of female scid mice (D0). Tumor cell injections were performed twenty four to forty eight hours after a whole body irradiation of mice (1.8 Gy, ^60Co, INRA, BRETENNIERES). The treatment was started at D5 (RPMI-8226 model) or D7 ([…] model) except alkeran which was administered at D10. B11 or control mAb was administered i.v. at 2 mg/kg, twice weekly for 8 weeks, bortezomib, at 1 mg/kg, once weekly for 8 weeks, lenalidomide p.o with 2 mg/kg for 2 cycles consisting of 5 days of treatment and 2 days of wash out, melphalan i.v. at 3 mg/kg, once weekly for 8 weeks and dexamethasone at 6 mg/kg, injected 2 consecutive weeks.
The disseminated model of scid/ARH-77 is a well-established experimental model that resembles human multiple myeloma disease progression and disease manifestation in many respects (33). We utilized this model to further characterize IgG B11 anti-myeloma activity (FIG. 6A). Intravenous injection of irradiated scid mice with 1×10^6 ARH-77 cells was previously shown to result in their dissemination and establishment in mouse bone-marrow, and resulting osteolytic bone-lesions and hypercalcemia, and ultimately, in animal paralysis or difficulty of breathing at which time animals were immediately sacrificed. […]

[3] = tested on: HUVEC and HMVEC endothelial cells; experiment: PCD in normal endothelial cells; type: cell-based; details: resting or activated (IFN-γ) cells
Description: Target cells were seeded in 96-well culture plates at a density of 2×10^6 cells/mL culture medium. Titrated concentrations of IgG1 B11 or different negative and positive control antibodies were added to the cells, in the absence or presence of anti-human Fab fragment (Jackson ImmunoResearch) for cross-linking. The cells were then incubated for 16 hours at 37° C. in a humidified atmosphere of 5% CO2. The cells were harvested and stained for Annexin V-488/Propidium Iodide (Invitrogen, Sweden) and analysed using flow cytometer (FACS Calibur, BD Bioscience).

[4] = tested on: ICAM-1 expressing tumor cell lines; experiment: Complement-dependent cytotoxicity in tumor cell lines; type: cell-based; details: panel of ICAM-1 expressing tumor cell lines; human serum
Description: Target cells were harvested and incubated in RPMI medium with antibodies at 5 μg/mL or at titrated concentrations between 0.01-100 μg/mL for 60 min on ice. Cells were thereafter washed and resuspended in cold medium before dispension into flow cytometry tubes. Treatments were performed in triplicates. Human serum, normal or heat-inactivated, (Sigma, Sweden) was added to tubes and the samples were incubated for 2 h at 37° C. After completed incubation ToPo-Pro-3 was added at a final concentration of 0.3 μM and cells were analyzed for membrane permeabilization using flow cytometry.

ARH-77 cells [5] = experiment: Subcutaneous scid/ARH-77 xenograft, prophylactic model; details: 20 mg/kg twice weekly i.p., commencing one day after tumor cell inoculation
Description: Tumor cells were injected subcutaneously into the left flank of SCID mice. Mice received twice-weekly intraperitoneal injections with BI-505, control antibody or rituximab at doses of 20, 2 and/or 0.2 mg/kg commencing one day after tumor cell inoculation. There were 8 to 10 animals per treatment group. […] Statistical significance was calculated relative to control antibody treatment using Kruskal-Wallis Test (Nonparametric ANOVA) with Dunn's Multiple Comparisons Test (tumor volume) or the log-rank test (mouse survival) using Graphpad Instat or Prism software, respectively. Statistical significance was considered for *p<0.05, **p<0.01, and ***p<0.001.
Tumor cells were injected subcutaneously into the left flank of SCID mice. Mice received twice-weekly intraperitoneal injections with BI-505 at doses of 0.02-20 mg/kg commencing day after tumor cell inoculation. There were 8-10 animals per treatment group. […] Statistical significance was calculated relative to control antibody treatment using Kruskal-Wallis Test (Nonparametric ANOVA) with Dunn's Multiple Comparisons Test (tumor volume) or the log-rank test (mouse survival) using Graphpad Instat or Prism software, respectively. Statistical significance was considered for *p<0.05, **p<0.01, and ***p<0.001. Graphs illustrate representative experiments out of several performed.
(FIG. 7A) ARH-77 cells were injected subcutaneously into the left flank of SCID mice (n=8 per group). Mice were treated with the different BI-505 isotypes twice weekly. […] Statistical significance was calculated relative to control antibody treatment using Kruskal-Wallis Test (Nonparametric ANOVA) with Dunn's Multiple Comparisons Test. Statistical significance was considered for *p<0.05, **p<0.01, and ***p<0.001.
Mice were anaesthetized with a mixture of sevofluran and oxygen prior to myeloma cell inoculation and 1-5×10^6 myeloma cells were then subcutaneously injected in a volume of 100 μl into the left flank.

ARH-77 tumors = experiment: Subcutaneous scid/ARH-77 xenograft, established (palpable tumor) model; details: IgG B11 even at 0.2 mg/kg (100-fold lower dose than rituximab)
Description: Mice were anaesthetized with a mixture of sevofluran and oxygen prior to myeloma cell inoculation and 1-5×10^6 myeloma cells were then subcutaneously injected in a volume of 100 μl into the left flank. Treatment with antibodies by intraperitonial (i.p.) injections was started either the day after cell inoculation (prophylactic model) or when tumors reached a size of approximately 100 mm^3 (established model). Antibodies were administrated in PBS in a total volume of 200 μL. Treatment with PBS or isotype control was used as control. Tumors were measured with a digital calliper and the tumor volumes were calculated according to formula: width^2×length×0.52. Animals were sacrificed when the tumor sizes reached the ethical limit of 1.5 cm. Surviving mice were sacrificed after a maximum of 5 months. Blood samples collected from the vena cava were centrifuged at 2500 g for 15 min to obtain serum and the samples were stored at −20° C. Tumors were removed for immunohistochemistry, snap frozen and were kept at −85° C.

[6] = tested on: B lymphoma cell line (CL-01); experiment: ADCC of tumor cells with human NK effector cells; type: cell-based; details: human Natural Killer effector cells
Text: Buffy coats from human donors (ordered through Blodcentralen, Lund) were used to isolate peripheral blood mononuclear cells (PBMCs), and subsequently NK cells. Briefly, peripheral blood components were separated using Ficoll Paque PLUS (Amersham Biosciences, Sweden) in LeucoSep tubes (Greiner Bio-One). The PBMC fraction was removed and thoroughly washed in ice-cold DPBS (Invitrogen), before magnetic labeling and separation of the NK cell population using positive or negative NK cell isolation kits and MACS LS columns (Miltenyi Biotec). The purity of the obtained NK cell fractions was analyzed using flow cytometry, after staining with α-CD56 antibodies (BD Biosciences). Target cells were harvested, and incubated in medium with or without the respective antibodies (2 μg/mL) for 60 min on ice. Cells were thereafter washed and resuspended in cold medium before dispension into FACS tubes. Subsequently, isolated NK cells were diluted in ADCC medium and dispensed together with the respective antibody-coated target cells at varying effector/target cell ratios (40:1, 20:1, 5:1 and 1:1). All experiments were performed in triplicates. After completed incubation ToPo-Pro-3 dye and counting beads (Invitrogen) were added and cells were analyzed for membrane permeabilization using flow cytometry.

mouse FcγRIV = molecular target: T1, mouse FcγRIV (Mus musculus, UniProt A0A0B4J1G0); experiment: Biacore binding of BI-505 isotype variants to mouse FcγRIV
T1 construct: made in house; host or cells: HEK293E (transient)
T1 sequence (A0A0B4J1G0 21-249): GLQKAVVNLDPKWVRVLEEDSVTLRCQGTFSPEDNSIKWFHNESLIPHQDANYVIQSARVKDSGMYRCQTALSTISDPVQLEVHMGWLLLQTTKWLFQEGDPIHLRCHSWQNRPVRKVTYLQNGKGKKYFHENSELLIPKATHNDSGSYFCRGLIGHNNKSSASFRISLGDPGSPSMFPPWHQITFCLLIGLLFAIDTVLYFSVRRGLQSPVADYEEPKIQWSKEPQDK
Description: (§1) His-tagged human FcγRIIIa or mouse FcγRIV were expressed transient in adherent HEK293E cells, purified using Ni-NTA chromatography and characterized using SDS-PAGE and/or Biacore. Surface plasmon resonance (SPR) measurements were perfomed using a Biacore 3000 instrument. Goat α-human-F(ab)′2 F(ab)′2 fragment (Jackson laboratories) was immobilised with a CM-5 chip using a standard amine coupling protocol. IgG1 B11, Iga4 B11, or 297Q B11 were diluted to 15 and 60 μg/mL respectively and added to the surface at […] for 3 min. His tagged human FcγRIIIa or mouse FcγRIV were pre-incubated with an α-HIS antibody (R&D Systems) at a 2:1 molar ratio before addition to the chip surface, […], 1 min. After each cycle the surface was regenerated twice with glycine buffer pH 1.7.

human FcγRIIIa = molecular target: T2, human FcγRIIIa (Homo sapiens, UniProt P08637); experiment: Biacore binding of BI-505 isotype variants to human FcγRIIIa
T2 construct: made in house; host or cells: HEK293E (transient)
T2 sequence (P08637 17-254): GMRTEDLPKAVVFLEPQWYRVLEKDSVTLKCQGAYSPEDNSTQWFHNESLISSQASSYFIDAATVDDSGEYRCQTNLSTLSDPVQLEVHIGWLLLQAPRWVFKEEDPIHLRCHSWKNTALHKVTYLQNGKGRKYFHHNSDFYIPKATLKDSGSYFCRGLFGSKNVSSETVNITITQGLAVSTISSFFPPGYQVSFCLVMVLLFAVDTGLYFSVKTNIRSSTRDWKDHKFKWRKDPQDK
Description: as §1

[7] = Mouse serum antibody levels by ELISA at end of xenograft experiment; type: in vivo; details: dose 2 mg/kg; mouse serum at end of experimentation
Description: We next performed a dose-titration experiment to establish IgG B11 in vivo potency and the minimal dose achieving maximal anti-tumor activity, using the scid/ARH-77 model system. […] Mouse serum antibody trough concentrations were determined by ELISA at the end of experimentation. Trough antibody concentrations were then plotted against percent of maximal in vivo anti-tumour activity, and against percent of maximal ICAM-1 receptor occupancy and tumour cell PCD at corresponding antibody concentrations in vitro (FIGS. 3C, 3D, 3E, 3F and 3G). Strikingly, a near perfect correlation between antibody concentration and in vitro tumour cell receptor occupancy, in vitro tumor cell PCD, and in vivo anti-tumour activity was observed, consistent with ICAM-1 dependent direct cell cytotoxicity underlying in vivo anti-tumour activity.

N[C@@H](Cc1ccc(N(CCCl)CCCl)cc1)C(=O)O [AIKERAN, Melphalan]
ICAM-1 expression on tumor cells collected from treated mice [1]: unchanged, high levels

Nc1cccc2c1CN(C1CCC(=O)NC1=O)C2=O (stereo not drawn) [Revlimid, Lenalidomide]
ICAM-1 expression on tumor cells collected from treated mice [1]: unchanged, high levels

CC(C)C[C@H](NC(=O)[C@H](Cc1ccccc1)NC(=O)c1cnccn1)B(O)O [bortezomib, reference compound]
ICAM-1 expression on tumor cells collected from treated mice [1]: unchanged, high levels
animal survival (ARH-77 cells [2]): did not significantly enhance animal survival
time to symptomatic disease onset (ARH-77 cells [2]): insignificantly delayed disease onset

CC(=O)O[C@H]1C(=O)[C@@]2(C)[C@H]([C@H](OC(=O)c3ccccc3)[C@]3(O)C[C@H](OC(=O)[C@H](O)[C@@H](NC(=O)c4ccccc4)c4ccccc4)C(C)=C1C3(C)C)[C@]1(OC(C)=O)CO[C@@H]1C[C@@H]2O [paclitaxel, reference compound]
PCD induction in normal endothelial cells [3]: induced significant endothelial cell

rituximab [reference compound]
induction of CDC [4]: effectively induced CDC
tumor growth (ARH-77 cells [5]): significant anti-tumor activity albeit less efficaciously
animal survival (ARH-77 tumors): incapable of reducing tumor growth or promoting animal survival
tumor growth (ARH-77 tumors): incapable of reducing tumor growth

B1: IgG4: human IgG4 isotype switch variant of B11 (antibody, V domains shown)
VH: EVQLLESGGGLVQPGGSLRLSCAASGFTFSNAWMSWVRQAPGKGLEWVAFIWYDGSNKYYADSVKGRFTISRDNSKNTLYLQMNSLRAEDTAVYYCARYSGWYFDYWGQGTLVTVSS
VL: QSVLTQPPSASGTPGQRVTISCTGSSSNIGAGYDVHWYQQLPGTAPKLLIYDNNNRPSGVPDRFSGSKSGTSASLAISGLRSEDEADYYCQSYDSSLSAWLFGGGTKLTVLG
ADCC of target tumor cells [6]: did not mediate ADCC
binding to murine FcγRIV (mouse FcγRIV): but not IgG4 or N297Q-mutant, showed strong binding
binding to human FcγRIIIa (human FcγRIIIa): did not bind to human FcγRIIIa
In vivo IgG Levels (serum antibody titers) [7]: 13 ± 3.1 µg/mL

B2: N297Q-mutant: FcγR-binding deficient mutant IgG1 isotype switch variant of B11 (antibody, V domains shown)
VH: EVQLLESGGGLVQPGGSLRLSCAASGFTFSNAWMSWVRQAPGKGLEWVAFIWYDGSNKYYADSVKGRFTISRDNSKNTLYLQMNSLRAEDTAVYYCARYSGWYFDYWGQGTLVTVSS
VL: QSVLTQPPSASGTPGQRVTISCTGSSSNIGAGYDVHWYQQLPGTAPKLLIYDNNNRPSGVPDRFSGSKSGTSASLAISGLRSEDEADYYCQSYDSSLSAWLFGGGTKLTVLG
ADCC of target tumor cells [6]: did not mediate ADCC
binding to murine FcγRIV (mouse FcγRIV): but not IgG4 or N297Q-mutant, showed strong binding
binding to human FcγRIIIa (human FcγRIIIa): did not bind to human FcγRIIIa
In vivo IgG Levels (serum antibody titers) [7]: 9.6 ± 3. μg/mL
